From patent US4575554A, “Substituted 2-pyridylmethylthio- and sulfinyl-benzimidazoles as gastric antisecretory agents” (The Upjohn Company, priority 1984, dated 1986)

Columns and labels:
[1] = test system: gastric acid secretion; test: inhibition of gastric acid secretion in the rat, duration of activity after subcutaneous administration; type: in vivo; conditions: after 6 days, 50 mg/kg
Excerpt: A significant advantage of certain of the compounds of the instant invention, particularly those of the Formula I wherein R1 is hydrogen, X is =S(O), R3 is methyl or ethyl, R4 is hydrogen, and R2 is methylthio, ethylthio, or propylthio, is their long duration of activity when administered subcutaneously. Thus, even after 6 days 2[(4-ethylthio-3-ethylpyridin-2-ylmethyl)sulfinyl]-benzimidazole and 2-[(4-ethylthio-3-methylpyridin-2-ylmethyl)sulfinyl]-benzimidazole inhibited gastric acid secretion in the rat 68 and 82%, respectively, when administered subcutaneously at a dose of 50 mg/kg.

[2] = molecular target: T1, (H^+ -K^+)ATPase (Rattus norvegicus, UniProt P09626); test: in vivo inactivation of (H^+ -K^+)ATPase in the rat; conditions: shown to be the most effective
T1 construct: from tissue; host or cells: rat, in vivo (endogenous enzyme)
T1 sequence (P09626 2-1033 limits assumed): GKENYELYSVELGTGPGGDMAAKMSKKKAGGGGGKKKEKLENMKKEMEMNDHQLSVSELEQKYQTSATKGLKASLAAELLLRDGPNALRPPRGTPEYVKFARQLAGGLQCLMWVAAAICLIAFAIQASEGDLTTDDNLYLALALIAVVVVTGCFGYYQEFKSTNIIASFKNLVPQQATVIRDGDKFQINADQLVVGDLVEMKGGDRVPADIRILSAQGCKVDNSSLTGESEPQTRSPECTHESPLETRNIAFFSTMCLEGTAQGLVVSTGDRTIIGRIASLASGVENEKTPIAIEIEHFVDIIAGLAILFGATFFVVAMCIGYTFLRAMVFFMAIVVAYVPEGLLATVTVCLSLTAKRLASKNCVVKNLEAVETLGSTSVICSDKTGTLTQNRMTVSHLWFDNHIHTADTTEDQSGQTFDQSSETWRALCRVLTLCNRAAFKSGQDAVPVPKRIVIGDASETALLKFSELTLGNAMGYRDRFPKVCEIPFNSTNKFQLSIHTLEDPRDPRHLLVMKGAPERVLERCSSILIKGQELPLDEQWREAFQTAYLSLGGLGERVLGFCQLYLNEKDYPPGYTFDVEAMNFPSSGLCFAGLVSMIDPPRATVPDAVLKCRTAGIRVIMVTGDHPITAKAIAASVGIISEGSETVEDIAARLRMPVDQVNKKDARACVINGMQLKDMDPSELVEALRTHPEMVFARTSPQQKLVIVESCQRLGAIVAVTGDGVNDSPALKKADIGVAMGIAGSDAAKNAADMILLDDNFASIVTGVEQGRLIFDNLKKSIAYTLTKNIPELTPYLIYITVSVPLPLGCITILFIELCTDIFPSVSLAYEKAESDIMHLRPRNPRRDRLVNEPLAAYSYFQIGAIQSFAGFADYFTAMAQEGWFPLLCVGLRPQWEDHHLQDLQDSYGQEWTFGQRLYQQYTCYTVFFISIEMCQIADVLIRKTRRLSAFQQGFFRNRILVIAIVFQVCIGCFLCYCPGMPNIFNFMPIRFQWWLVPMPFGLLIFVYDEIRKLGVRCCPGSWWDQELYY
T1 sequence (P18598 whole entry partner): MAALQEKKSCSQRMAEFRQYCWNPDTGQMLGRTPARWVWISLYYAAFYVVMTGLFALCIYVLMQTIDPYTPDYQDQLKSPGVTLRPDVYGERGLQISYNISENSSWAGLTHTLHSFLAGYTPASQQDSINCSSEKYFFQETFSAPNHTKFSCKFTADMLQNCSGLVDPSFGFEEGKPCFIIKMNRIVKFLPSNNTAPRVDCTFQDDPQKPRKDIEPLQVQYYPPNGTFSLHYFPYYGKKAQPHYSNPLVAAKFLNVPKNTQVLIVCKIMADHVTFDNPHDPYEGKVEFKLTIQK

[3] = test system: isolated gastric glands; test: inhibition of acid secretion in isolated gastric glands of the rabbit; type: cell-based; conditions: Oryctolagus cuniculus, shown to be the most effective, read-out: ID50 (the source's name)
[4] = molecular target: T2, gastric(H^+ -K^+)ATPase (Sus scrofa, UniProt P19156); test: inhibition of K^+ -dependent ATP hydrolysis by isolated hog gastric membranes enriched with gastric (H^+ -K^+)ATPase; type: biochemical; conditions: shown to be the most effective, read-out: ID50 (the source's name)
T2 construct: isolated hog gastric membranes enriched with gastric(H^+ -K^+)ATPase; from tissue; host or cells: hog gastric membranes
T2 sequence (P19156 2-1034 limits assumed): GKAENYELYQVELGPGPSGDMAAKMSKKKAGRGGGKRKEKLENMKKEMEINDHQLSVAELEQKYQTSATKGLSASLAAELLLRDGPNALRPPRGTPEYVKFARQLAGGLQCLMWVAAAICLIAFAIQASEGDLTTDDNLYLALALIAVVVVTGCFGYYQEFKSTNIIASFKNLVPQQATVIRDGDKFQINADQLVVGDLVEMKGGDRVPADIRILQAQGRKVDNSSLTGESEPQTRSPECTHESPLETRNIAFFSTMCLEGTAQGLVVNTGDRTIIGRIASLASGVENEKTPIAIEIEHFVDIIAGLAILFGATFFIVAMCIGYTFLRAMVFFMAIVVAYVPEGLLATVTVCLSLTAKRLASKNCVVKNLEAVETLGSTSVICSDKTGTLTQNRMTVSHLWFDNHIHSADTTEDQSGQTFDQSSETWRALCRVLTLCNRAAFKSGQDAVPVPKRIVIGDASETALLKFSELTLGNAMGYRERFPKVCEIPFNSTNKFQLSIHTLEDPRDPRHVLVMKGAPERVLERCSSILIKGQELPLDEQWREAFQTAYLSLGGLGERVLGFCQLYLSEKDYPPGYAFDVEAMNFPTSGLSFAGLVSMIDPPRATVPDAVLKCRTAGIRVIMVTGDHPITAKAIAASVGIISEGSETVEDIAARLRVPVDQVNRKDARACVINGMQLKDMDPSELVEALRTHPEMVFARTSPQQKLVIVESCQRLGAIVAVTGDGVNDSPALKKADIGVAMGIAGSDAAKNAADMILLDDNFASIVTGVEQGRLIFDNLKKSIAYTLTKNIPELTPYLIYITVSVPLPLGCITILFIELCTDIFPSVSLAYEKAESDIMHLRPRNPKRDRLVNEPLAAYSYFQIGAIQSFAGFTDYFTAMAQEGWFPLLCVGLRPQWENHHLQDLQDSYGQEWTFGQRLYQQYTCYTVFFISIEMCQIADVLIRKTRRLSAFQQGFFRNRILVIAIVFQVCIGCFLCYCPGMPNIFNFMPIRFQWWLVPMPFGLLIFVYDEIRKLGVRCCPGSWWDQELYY
T2 sequence (P18434 whole entry partner): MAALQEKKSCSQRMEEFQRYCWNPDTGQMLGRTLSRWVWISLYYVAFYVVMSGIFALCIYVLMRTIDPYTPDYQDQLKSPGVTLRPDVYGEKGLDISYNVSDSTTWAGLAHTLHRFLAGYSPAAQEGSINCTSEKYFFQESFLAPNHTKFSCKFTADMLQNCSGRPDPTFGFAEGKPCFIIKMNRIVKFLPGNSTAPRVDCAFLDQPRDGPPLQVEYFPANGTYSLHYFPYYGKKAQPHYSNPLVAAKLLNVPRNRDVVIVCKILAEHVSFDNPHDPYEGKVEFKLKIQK

Row | IC50 [3] | IC50 [4] | Compound | inhibition of gastric acid secretion [1] | ED50 [2]
1 | – | – | CCSc1ccnc(C[S+]([O-])c2nc3ccccc3[nH]2)c1C (centres unmarked) [Compound 7, 2-[(4-ethylthio-3-methylpyridin-2-ylmethyl)sulfinyl]-benzimidazole] | 82% | 1 mg/kg
2 | 100 nM | – | CCSc1ccnc(C[S+]([O-])c2nc3ccccc3[nH]2)c1CC (centres unmarked) [Compound 12, 2-[(4-ethylthio-3-ethylpyridin-2-ylmethyl)sulfinyl]-benzimidazole] | 68% | –
3 | – | 3000 nM | CCc1c(OC)ccnc1C[S+]([O-])c1nc2ccccc2[nH]1 (centres unmarked) [Compound 15, 2-[(4-methoxy-3-ethylpyridin-2-ylmethyl)sulfinyl]-benzimidazole] | – | –
